We go through five compounds from PMC3116808 (Journal of natural products, 2011).

Common to all, as to format: cell-based
For assay [1], the system named is panel of murine and human cancer cell lines. Briefly: Cancer cell growth inhibition, summary over the panel.
For assay [2], the system named is MCF-7. Briefly: Human cancer cell line minipanel: breast MCF-7. The conditions noted are these: MCF7.
For assay [3], the system named is KM20L2. In words: Human cancer cell line minipanel: colon KM20L2. Conditions: KM-20L2.
Assay [4] has as its system SF-268. In words: Human cancer cell line minipanel: CNS SF-268.
Assay [5] concerns DU-145. In words: Human cancer cell line minipanel: prostate DU-145.
The test system of assay [6] is NCI-H460. Briefly: Human cancer cell line minipanel: lung NCI-H460.
Assay [7] has as its system BXPC-3. Briefly: Human cancer cell line minipanel: pancreas BXPC-3.
Assay [8] has as its system P388 lymphocytic leukemia cell line. In words: Murine P388 lymphocytic leukemia cell line growth inhibition.

Converted amounts (≈) assume the structure as drawn.

Turning to `CC[C@H](C)[C@@H]([C@@H](CC(=O)N1CCC[C@H]1[C@H](OC)[C@@H](C)C(=O)Nc1ccc2ncccc2c1)OC)N(C)C(=O)[C@@H](NC(=O)[C@H](C(C)C)N(C)C)C(C)C` [compound 5, Dov-Val-Dil-Dap-6-aminoquinoline], the GI50 (as a rule, the concentration giving 50% growth inhibition) in assay [1] was determined as 0.1 ng/mL (≈ 0.138 nM); in assay [2] it was 0.14 ng/mL (≈ 0.193 nM); in assay [3], 0.25 ng/mL (≈ 0.345 nM); in assay [4], 0.16 ng/mL (≈ 0.221 nM); in assay [5], 0.3 ng/mL (≈ 0.414 nM); in assay [6], 0.36 ng/mL (≈ 0.497 nM). This compound also came in with a GI50 in assay [7] of 0.31 ng/mL (≈ 0.428 nM). Besides, in assay [8], the ED50 amounted to 2.6 ng/mL (≈ 3.59 nM). Further, the “ED50 (nanomolar value in parentheses)” value in assay [8] came out at 3.59 nM.

As for `CC[C@H](C)[C@@H]([C@@H](CC(=O)N1CCC[C@H]1[C@H](OC)[C@@H](C)C(=O)NCCc1ccc(OP(=O)([O-])[O-])cc1)OC)N(C)C(=O)[C@@H](NC(=O)[C@H](C(C)C)N(C)C)C(C)C.[Na+].[Na+]` [3b, Sodium Auristatin TP], the concentration for 50% growth inhibition (GI50) in assay [2] was 0.68 ng/mL; in assay [3], 0.61 ng/mL; in assay [4], 1.25 ng/mL; in assay [5], 0.54 ng/mL; in assay [6], 0.88 ng/mL; in assay [7], 46 ng/mL. This compound had an ED50 in assay [8] of less than 1 ng/mL. Moreover, the “ED50 (nanomolar value in parentheses)” value in assay [8] is less than 1.2 nM.

Consider `CC[C@H](C)[C@@H]([C@@H](CC(=O)N1CCC[C@H]1[C@H](OC)[C@@H](C)C(=O)Nc1ccc2ccccc2n1)OC)N(C)C(=O)[C@@H](NC(=O)[C@H](C(C)C)N(C)C)C(C)C` [compound 4, Dov-Val-Dil-Dap-2-aminoquinoline], for which the GI50 in assay [2] was found to be 4.6 ng/mL (≈ 6.34 nM); in assay [3], 7.7 ng/mL (≈ 10.6 nM); in assay [4] it was 29 ng/mL (≈ 40 nM); in assay [5], 23 ng/mL (≈ 31.7 nM); in assay [6] it was 16 ng/mL (≈ 22.1 nM); in assay [7], 29 ng/mL (≈ 40 nM). The compound further yielded an ED50 in assay [8] of 31 ng/mL (≈ 42.8 nM). Further, in assay [8], the “ED50 (nanomolar value in parentheses)” value amounted to 42.8 nM.

On to `CC[C@H](C)[C@@H]([C@@H](CC(=O)N1CCC[C@H]1[C@H](OC)[C@@H](C)C(=O)NCCc1ccc(O)cc1)OC)N(C)C(=O)[C@@H](NC(=O)[C@H](C(C)C)N(C)C)C(C)C` [compound 9, Dov-Val-Dil-Dap-4-hydroxyphenethylamide], for which, in assay [8], the ED50 stood at 3.6 ng/mL (≈ 5.01 nM) and the “ED50 (nanomolar value in parentheses)” value amounted to 5.0 nM.

In the case of `CC[C@H](C)[C@@H]([C@@H](CC(=O)N1CCC[C@H]1[C@H](OC)[C@@H](C)C(=O)NCCc1ccc(OP(=O)([O-])[O-])cc1)OC)N(C)C(=O)[C@@H](NC(=O)[C@H](C(C)C)N(C)C)C(C)C.[K+].[K+]` [3c, Potassium Auristatin TP], in assay [8], the ED50 amounted to 7.6 ng/mL and the “ED50 (nanomolar value in parentheses)” value stood at 8.7 nM.
